Reference: patent US20260317314A1, “NITROGEN-CONTAINING HETEROCYCLIC COMPOUND AND USE THEREOF” (JIANGSU DEYUAN PHARMACEUTICAL CO.,LTD., priority 2023, published 2026)

Assays:
[1] = target: T1, CYP2C9 (Homo sapiens, UniProt P11712); experiment: Human liver microsome CYP inhibition assay, CYP2C9; assay type: in vitro ADME; conditions: role: inhibitor; human liver microsomes, probe substrate; read-out: CYP2C9 half maximal inhibitory concentration IC50
T1 construct: Mixed human liver microsomes (HLM) were purchased from Corning Inc; tissue Corning Inc; host or cells: mixed human liver microsomes (HLM)
Procedure: Experimental objective: To evaluate the inhibitory activity of the test substance on human liver microsomal cytochrome P450 isoenzymes (CYP1A2, CYP2C9, CYP2C19, CYP2D6, CYP3A4) using a 5-in-1 probe substrate for CYP isoenzymes.
Mixed human liver microsomes (HLM) were purchased from Corning Inc. (Steuben, New York, USA) and stored at temperatures below −70° C. prior to use.
The working solution of the test substance, which had been diluted to a series of concentrations, was added to an incubation system containing human liver microsomes, probe substrates, and auxiliary factors of the circulatory system. A control containing solvent but no test substance served as an enzyme activity control (100%). The concentration of metabolites produced from probe substrates in the samples was determined using Liquid Chromatography-Tandem Mass Spectrometry (LC-MS/MS) method. Non-linear regression analysis of the average percentage activity of the test substance against its concentration was conducted using SigmaPlot (V.11). The IC50 values were calculated using a three-parameter or four-parameter inverse log equation.

[2] = In vivo pharmacokinetics study in rats; parameters: species or system SD rat; conditions: rat, plasma, male SD rats, oral 2 mg/kg
[3] = Permeability test in MDR1-MDCKII monolayer cell model; assay type: in vitro ADME; conditions: dog
Method in brief: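 Bidirectional transport of 2 μM compound across 4–7-day MDR1-MDCKII monolayers in HBSS with 10 mM HEPES pH 7.40, DMSO below 1%, 2.5 h at 37 °C. Quantified by LC-MS/MS. Papp calculated from receiver accumulation; efflux ratio = Papp(B-A)/Papp(A-B).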

[4] = Plasma protein binding rate test, human (equilibrium dialysis); assay type: in vitro ADME; conditions: 37° C.
Excerpt: The sample was thoroughly mixed.

[5] = target: T2, human CYP11B1 (Homo sapiens, UniProt P15538); experiment: In vitro activity assay of monoclonal cells overexpressing human CYP11B1; assay type: cell-based; conditions: G402 cells overexpressing human CYP11B1; substrate 11-deoxycortisol 1 μM; 16 hours
T2 construct: expressed in transfected cells; host or cells: human renal leiomyoma G402 cell line (monoclonal cells overexpressing human CYP11B1)
T2 sequence (P15538 25-503): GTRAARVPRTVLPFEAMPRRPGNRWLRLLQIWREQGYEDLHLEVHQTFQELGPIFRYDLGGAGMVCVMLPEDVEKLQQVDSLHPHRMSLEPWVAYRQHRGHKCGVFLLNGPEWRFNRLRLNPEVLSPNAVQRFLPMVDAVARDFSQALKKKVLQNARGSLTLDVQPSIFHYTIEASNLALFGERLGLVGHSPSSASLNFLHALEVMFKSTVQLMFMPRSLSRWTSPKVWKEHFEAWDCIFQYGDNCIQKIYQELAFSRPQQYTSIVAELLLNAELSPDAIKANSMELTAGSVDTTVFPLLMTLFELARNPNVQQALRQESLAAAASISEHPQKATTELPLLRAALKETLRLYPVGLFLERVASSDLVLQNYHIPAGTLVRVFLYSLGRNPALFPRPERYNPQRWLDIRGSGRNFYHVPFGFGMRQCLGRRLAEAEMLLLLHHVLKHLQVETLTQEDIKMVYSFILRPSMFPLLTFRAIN
Procedure: The human renal leiomyoma G402 cell line overexpressing human CYP11B1 was selected to serve as a compound selectivity screening system. Details are as follows: • 1) The cells, reagents, and instrument information were consistent with Experimental Example 1 (activity of monoclonal cells overexpressing human CYP11B2). • 2) Compound details: The test compound was prepared as a […] working concentration using DMSO. • 3) Experimental procedure
Day 1: Cells were digested, and human renal leiomyoma G402 cells overexpressing CYP11B1 were resuspended to 1×10^5 cells/mL, with […] seeded into a 96-well plate.
Day 2: The medium was replaced with DMEM/F12 containing 2.5% charcoal-stripped fetal bovine serum.
After one hour, the substrate was added: 30 mM 11-deoxycortisol was diluted 1500-fold with culture medium, and 5 μL was dispensed per well to achieve a final concentration of 1 μM, followed by incubation for 16 hours.
Day 3: The cell supernatant was collected and added to 200 μL of a methanol solution containing internal standards (internal standards: 35 ng/mL ketoprofen or 7.5 ng/mL carbamazepine or 5 ng/mL diphenhydramine or 10 ng/mL tolbutamide). […] The mixture was centrifuged (4000 g, 4° C., 15 min), and the supernatant was analyzed by ESI-LCMS/MS. • 4) Data analysis: […]
The IC50 of the test compound was determined by fitting to a nonlinear regression equation using XLfit 5.5.0.

T1 sequence (P11712 whole entry): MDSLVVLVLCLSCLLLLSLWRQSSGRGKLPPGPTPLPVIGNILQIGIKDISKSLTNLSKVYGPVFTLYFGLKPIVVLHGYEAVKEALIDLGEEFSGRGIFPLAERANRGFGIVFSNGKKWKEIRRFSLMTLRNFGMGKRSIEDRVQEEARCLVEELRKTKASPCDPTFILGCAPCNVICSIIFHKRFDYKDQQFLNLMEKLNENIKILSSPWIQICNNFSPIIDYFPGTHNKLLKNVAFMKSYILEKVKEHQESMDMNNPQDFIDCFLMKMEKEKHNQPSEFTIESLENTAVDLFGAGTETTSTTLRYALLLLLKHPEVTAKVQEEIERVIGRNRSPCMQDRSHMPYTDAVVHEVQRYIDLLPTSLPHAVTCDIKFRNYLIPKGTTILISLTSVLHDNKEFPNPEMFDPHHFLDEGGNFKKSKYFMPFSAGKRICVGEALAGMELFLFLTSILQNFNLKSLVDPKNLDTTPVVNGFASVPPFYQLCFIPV

- IC50 [1]: > 50 µM
- bioavailability [2]: 157%
- half-life [2]: 2.36 h
- Cmax [2]: 8.29 µM
- AUC(0-t) at 24 h ([2]; read-out: AUC0-24 h): 49.9 µM·h
- efflux ratio at 2.5 h, 2 µM ([3]; MDCK-MDR1, pH 7.4, ER=Papp(BA)/Papp(AB)): 1.88
- Papp A→B at 2.5 h, 2 µM ([3]; MDCK-MDR1, pH 7.4, pH 7.40, 2.5 hours, 37±1° C., read-out: Apparent permeability coefficient (Papp (AB))): 10.7 ×10⁻⁶ cm/s
- fraction unbound at 4 h [4]: 0.354
- IC50 [5]: 3.47 µM
Structure (SMILES): CCC(=O)N[C@H]1CCOc2c(-c3ccc4c(c3)CCC(=O)N4C)cncc21 (single isomer, unassigned) [Compound 037]
